Article PMC4491109, “Synthesis and anticonvulsant activity of new N-phenyl-2-(4-phenylpiperazin-1-yl)acetamide derivatives” (Medicinal Chemistry Research, 2015)
Where two headings read alike, the source gives them in different places.

Key:
mice (rotarod test) = assay: Neurotoxicity screening (NT), rotarod test, i.p. administration in mice; type: in vivo; details: for dose showing neurotoxicity in the rotarod test (NT): ip
Method: (§1) Considering the aforementioned facts, the profile of anticonvulsant activity of final compounds 3–24 was established in the MES and scPTZ tests, after intraperitoneal (i.p.) injection in mice at doses of 30, 100 and 300 mg/kg. An observation was carried out at two different time intervals—0.5 and 4 h. Furthermore, in addition to the primary anticonvulsant screening, the acute neurological toxicity (NT) was determined in mice by the rotarod test.
(§2) Phase I of the in vivo studies involved three tests: MES, scPTZ and rotarod test for NT. Male albino mice (CF#1 strain, weighing 18–25 g) and male albino rats (Sprague–Dawley) were used as experimental animals. The animals were housed in metabolic cages and allowed free access to food and water. The compounds were injected intraperitoneally to mice as a suspension in 0.5 % methylcellulose/water mixture at a dose level 30, 100 or 300 mg/kg with anticonvulsant activity and neurotoxicity assessment at 0.5 and 4 h after administration. Promising derivatives from phase I underwent phase VIa in which they were administrated orally into rats at a fixed dose of 30 mg/kg for both MES and the rotarod toxicity determination at five pretreatment times: 0.25, 0.5, 1, 2, 4 h. Groups of eight mice or four rats are employed.
The neurological toxicity test (NT) induced by a compound was detected in mice or rats using standardized rotarod test (Dunham and Miya, [1957]). Untreated control mice or rats, when placed on the rod, can maintained their equilibrium for a prolonged time period.

[1] = system: pentylenetetrazole-induced seizures; assay: Subcutaneous pentylenetetrazole (scPTZ) test, i.p. administration in mice; type: in vivo; details: Mus musculus, ip, doses of 30, 100 or 300 mg/kg
Method: as §1
(§3) Compounds 3–24 were pharmacologically preevaluated within the Antiepileptic Drug Development (ADD) Program in Epilepsy Branch, Neurological Disorders Program, National Institute of the Neurological and Communicative Disorders and Stroke (NIH/NINDS), Rockville, MD, USA, by using procedures described elsewhere (Krall et al., [1978]; Kupferberg, [1989]).
as §2
(§4) The scPTZ test utilizes a dose of pentylenetetrazole (85 mg/kg in mice) that produces clonic seizures lasting for a period of at least 5 s in 97 % (CD97) of animals tested. PTZ is administered 0.5 and 4 h after injections of tested compounds, and observation is carried out for 30 min. In the control groups, the first episode of clonic convulsions is observed between 6 and 15 min of observation. The absence of clonic convulsions in the observed time period of […] is interpreted as the compound’s ability to protect against PTZ-induced seizures.

[2] = system: maximal electroshock (MES) seizures; assay: MES test after oral administration in rats (screen and quantification); type: in vivo; details: for ED50: Rattus norvegicus, po, at TPE, 95 % confidence limits in parentheses; for PI (TD50/ED50), MES: protective index for MES
Method: This screen discloses the time of onset, the approximate time of peak effect (TPE) and the duration of anticonvulsant activity or neurotoxicity.
The quantitative evaluation of the MES median effective dose (ED50) and toxic dose (TD50) was performed at previously estimated TPE—2 h.
as §2
In the MES screen, an electrical stimulus of 0.2 s in duration (50 mA in mice and 150 mA in rats) is delivered via corneal electrodes primed with an electrolyte solution containing an anesthetic agent. The endpoint is the tonic extension of the hind limbs. […] Mice not displaying hind limb tonic extension are considered to be protected from seizures.

[3] = system: maximal electroshock (MES) seizures; assay: Maximal electroshock (MES) test, i.p. administration in mice; type: in vivo; details: Mus musculus, ip, doses of 30, 100 or 300 mg/kg
Method: as §1, §3, §2
In the MES screen, an electrical stimulus of 0.2 s in duration (50 mA in mice and 150 mA in rats) is delivered via corneal electrodes primed with an electrolyte solution containing an anesthetic agent. The endpoint is the tonic extension of the hind limbs. In the control groups, the procedures cause immediate hind limb tonic extension. Mice not displaying hind limb tonic extension are considered to be protected from seizures.

[4] = system: 6-Hz psychomotor seizures; assay: Psychomotor seizure test (6-Hz), i.p. in mice; type: in vivo; details: 100 mg/kg; for 6-Hz, number of mice protected/number of mice tested, 0.25 h / 6-Hz, number of mice protected/number of mice tested, 0.5 h / 6-Hz, number of mice protected/number of mice tested, 1 h / 6-Hz, number of mice protected/number of mice tested, 2 h / 6-Hz, number of mice protected/number of mice tested, 4 h: current 32 mA
Text: In the next step of pharmacological investigations, four compounds 12, 19, 20 and 24 were chosen for the evaluation of anticonvulsant activity in the psychomotor 6-Hz test (Table 4). The selection was made randomly as a part of the search of molecules providing anti-6-Hz protection among chemically diversified compounds pursued in the NIH/NINDS. It should be noticed that 6-Hz screen has been validated as a model of therapy-resistant epilepsy (Barton et al., [2001]).
The 6-Hz model is an alternative electroshock paradigm that uses low-frequency (6 Hz), long-duration (3 s) electrical stimulation. Corneal stimulation (0.2 ms duration monopolar rectangular pulses at 6-Hz for 3 s) was delivered by a constant-current device. During the stimulation, mice were manually restrained and released into the observation cage immediately after the current application. The seizures manifest in “stunned” posture associated with rearing, forelimb, automatic movements and clonus, twitching the vibrissae and Straub–tail. The duration of the seizure activity ranges from 60 to 120 s in untreated animals. At the end of the seizure, animals resume their normal exploratory behavior. The experimental end point is protection against the seizure. The animal is considered to be protected if it resumes its normal exploratory behavior within 10 s from the stimulation (Brown et al., [1953]).

in vivo = details: male, Sprague-Dawley, rat, po
[5] = system: pentylenetetrazole-induced seizures; assay: scPTZ test after p.o. administration in rats (quantification); type: in vivo; details: for ED50: Rattus norvegicus, po, at TPE, 95 % confidence limits in parentheses
Method: On the basis of the preliminary data in rats, compound 20 was chosen for quantification of the pharmacological parameters (ED50 and TD50) after p.o. application. The quantitative evaluation of the MES median effective dose (ED50) and toxic dose (TD50) was performed at previously estimated TPE—2 h.
as §4

rats (rotarod test) = assay: Neurotoxicity, rotarod test after p.o. administration in rats; details: at TPE, 95 % confidence limits in parentheses
PTZ seizures = system: PTZ seizures; set-up: method as in Rogawski, 2006; details: even at high doses, ref Rogawski, 2006; cited from earlier work
[6] = system: 6-Hz psychomotor seizures; set-up: method as in Rogawski, 2006; details: ref Rogawski, 2006; cited from earlier work
MES seizures = system: MES seizures; set-up: method as in Rogawski, 2006; details: even at high doses, ref Rogawski, 2006; cited from earlier work
[7] = 0.5 h, read-out: scPTZ, minimum dose effective in half or more animals tested, 0.5 h
[8] = 4 h, read-out: scPTZ, minimum dose effective in half or more animals tested, 4 h
[9] = 0.5 h, read-out: MES, minimum dose effective in half or more animals tested, 0.5 h
[10] = 4 h, read-out: MES, minimum dose effective in half or more animals tested, 4 h

SMILES	NT (rotarod), minimum dose neurotoxic in half or more animals tested, 0.5 h (mice (rotarod test); male, CF#1, mouse, in vivo)	dose showing neurotoxicity in the rotarod test (NT) (mice (rotarod test); male, CF#1, mouse, in vivo) [mg/kg]	minimal effective dose [1, 7] [mg/kg]	minimal effective dose [1, 8] [mg/kg]	MES, number of rats protected/number of rats tested, 0.25 h ([2]; p.o., 30 mg/kg)	MES, number of rats protected/number of rats tested, 0.5 h ([2]; p.o., 30 mg/kg)	MES, number of rats protected/number of rats tested, 1 h ([2]; p.o., 30 mg/kg)	MES, number of rats protected/number of rats tested, 2 h ([2]; p.o., 30 mg/kg, 2 h)	MES, number of rats protected/number of rats tested, 4 h ([2]; p.o., 30 mg/kg)	minimal effective dose [3, 9] [mg/kg]	minimal effective dose [3, 10] [mg/kg]	6-Hz, number of mice protected/number of mice tested, 0.25 h [4]	6-Hz, number of mice protected/number of mice tested, 0.5 h ([4]; 0.5 h)	6-Hz, number of mice protected/number of mice tested, 1 h ([4]; 1 h)	6-Hz, number of mice protected/number of mice tested, 2 h ([4]; 2 h)	6-Hz, number of mice protected/number of mice tested, 4 h [4]	PI (TD50/ED50), MES ([2]; p.o.)	also measured
Cl.O=C(CN1CCOCC1)Nc1cccc(Cl)c1 [Compound 13, N-(3-chlorophenyl)-2-morpholino-acetamide monohydrochloride]	300 mg/kg	300	> 300	> 300	0/4	1/4	0/4	0/4	0/4	100	300	–	–	–	–	–	–	–
Cl.O=C(CN1CCN(c2ccc(F)cc2)CC1)Nc1cccc(C(F)(F)F)c1 [Compound 19, 2-[4-(4-Fluorophenyl)piperazin-1-yl]-N-[3-(trifluoromethyl)phenyl]acetamide monohydrochloride]	300 mg/kg	300	> 300	> 300	–	–	–	–	–	300	100	0/4	0/4	0/4	0/4	1/4	–	6-Hz, % of animals protected, 4 h [4]: 25%
Cl.O=C(CN1CCN(c2cccc(C(F)(F)F)c2)CC1)Nc1cccc(C(F)(F)F)c1 [Compound 20, N-[3-(Trifluoromethyl)phenyl]-2-[4-[3-(trifluoromethyl)phenyl]piperazin-1-yl]acetamide monohydrochloride]	–	–	> 300	> 300	0/4	1/4	0/4	2/4	0/4	> 300	100	1/4	0/4	0/4	1/4	1/4	>9.56 (MES)	TD50 at 2 h (in vivo): > 500 mg/kg; 6-Hz, % of animals protected, 0.25 h [4]: 25%; 6-Hz, % of animals protected, 2 h ([4]; 2 h): 25%; 6-Hz, % of animals protected, 4 h [4]: 25%; ED50 [2]: 52.3 mg/kg; MES, % of animals protected, 2 h ([2]; p.o., 30 mg/kg, 2 h): 50%
O=C(CN1CCN(Cc2ccccc2)CC1)Nc1cccc(C(F)(F)F)c1 [Compound 22, 2-(4-Benzylpiperazin-1-yl)-N-[3-(trifluoromethyl)phenyl]acetamide]	300^33 mg/kg	–	> 300	> 300	1/4	1/4	1/4	1/4	1/4	300	> 300	–	–	–	–	–	–	response comment (adverse sign observed) (mice (rotarod test); mice, i.p., 300 mg/kg): tremors
Cl.O=C(CN1CCOCC1)Nc1cccc(C(F)(F)F)c1 [Compound 24, 2-Morpholino-N-[3-(trifluoromethyl)phenyl]acetamide monohydrochloride]	100 mg/kg	100	> 300	> 300	–	–	–	–	–	100	> 300	4/4	2/4	3/4	0/4	0/4	–	6-Hz, % of animals protected, 0.25 h [4]: 100%; 6-Hz, % of animals protected, 0.5 h ([4]; 0.5 h): 50%; 6-Hz, % of animals protected, 1 h ([4]; 1 h): 75%
O=C1NC(=O)C(c2ccccc2)(c2ccccc2)N1 [Phenytoin, reference compound]	100 mg/kg	–	> 300	> 300	1/4	4/4	3/4	3/4	3/4	30	30	–	–	–	–	–	>3.6 (MES)	NT (rotarod), minimum dose neurotoxic in half or more animals tested, 4 h (mice (rotarod test); male, CF#1, mouse, in vivo, 4 h): 100 mg/kg; TD50 at 2 h (in vivo): > 100 mg/kg; ED50 [5]: > 500 mg/kg; ED50 [2]: 28.1 mg/kg
CCCC(CCC)C(=O)O [Valproic acid]	–	–	–	–	–	–	–	–	–	–	–	–	–	–	–	–	1.6	TD50 NT (rotarod) (rats (rotarod test)): 784 (503–1176) mg/kg; ED50 [5]: 646 mg/kg; PI (TD50/ED50), scPTZ ([5]; protective index for scPTZ): 1.2
CC[C@@H](C(N)=O)N1CCCC1=O [levetiracetam]	–	–	–	–	–	–	–	–	–	–	–	–	–	–	–	–	–	activity against classical PTZ seizures (in words) (PTZ seizures): inactive; effectiveness in the 6-Hz psychomotor seizure model (in words) [6]: high effectiveness; activity against classical MES seizures (in words) (MES seizures): inactive
